Reference: patent US9085576B2 (AMGEN INC., priority 2013, dated 2015)

Assays:
[1] = target: Beta Secretase enzyme (BACE) (Homo sapiens (Human), UniProt P56817); experiment: In vitro enzymatic BACE FRET assay; assay type: biochemical; conditions: read-out: BACE1 Enzyme assay IC50
BACE = BACE (Homo sapiens (Human), UniProt P56817); experiment: In vitro BACE cell-based assay (Aβ40 in conditioned medium, sandwich ELISA)
Cathepsin D (Cat D) = Cathepsin D (Cat D) (Homo sapiens (Human), UniProt P07339); experiment: In vitro enzymatic Cathepsin D (Cat D) FRET assay; assay type: biochemical; conditions: read-out: CatD IC50
Sequence of Cathepsin D (Cat D) (P07339 65-412, species assumed): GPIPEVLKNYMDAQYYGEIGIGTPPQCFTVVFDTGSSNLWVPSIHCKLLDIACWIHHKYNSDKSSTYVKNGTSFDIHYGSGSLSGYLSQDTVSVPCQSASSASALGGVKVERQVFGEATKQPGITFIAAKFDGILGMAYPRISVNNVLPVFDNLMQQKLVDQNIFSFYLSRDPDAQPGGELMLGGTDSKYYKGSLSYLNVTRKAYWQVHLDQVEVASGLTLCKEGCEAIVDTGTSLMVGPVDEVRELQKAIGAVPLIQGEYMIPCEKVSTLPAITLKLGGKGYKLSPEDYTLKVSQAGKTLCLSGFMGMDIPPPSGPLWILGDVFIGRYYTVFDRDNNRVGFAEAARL

Sequence of BACE (P56817 46-501, species assumed): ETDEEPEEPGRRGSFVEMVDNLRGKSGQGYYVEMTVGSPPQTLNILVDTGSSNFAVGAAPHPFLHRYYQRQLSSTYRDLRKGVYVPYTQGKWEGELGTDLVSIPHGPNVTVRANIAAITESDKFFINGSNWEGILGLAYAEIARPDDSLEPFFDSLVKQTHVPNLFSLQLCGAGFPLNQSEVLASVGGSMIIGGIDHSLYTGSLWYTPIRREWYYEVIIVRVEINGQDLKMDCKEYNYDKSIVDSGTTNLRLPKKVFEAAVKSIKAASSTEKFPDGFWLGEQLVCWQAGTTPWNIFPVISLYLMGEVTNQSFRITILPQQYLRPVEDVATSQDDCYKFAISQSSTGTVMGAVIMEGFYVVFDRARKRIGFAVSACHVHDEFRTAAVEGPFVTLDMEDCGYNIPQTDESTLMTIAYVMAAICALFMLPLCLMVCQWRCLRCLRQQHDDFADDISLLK
Sequence of Beta Secretase enzyme (BACE) (P56817 46-501): as the sequence (P56817 46-501, species assumed) above

SMILES	IC50 [1] [µM]	IC50 (BACE) [µM]	IC50 (Cathepsin D (Cat D)) [µM]
Cc1cc(C#N)cnc1C(=O)Nc1cc(F)c(C)c([C@@]2(C(F)F)N=C(N)O[C@@H]3C[C@@H]32)c1 [Example 310, N-(3-((1R,5S,6R)-3-amino-5-(difluoromethyl)-2-oxa-4-azabicyclo[4.1.0]hept-3-en-5-yl)-5-fluoro-4-methylphenyl)-5-cyano-3-methylpicolinamide]	> 40	> 15.6	1770
Cc1cc(C#N)cnc1C(=O)Nc1cc(F)c(C)c([C@]2(C(F)F)N=C(N)O[C@H]3C[C@H]32)c1 [Example 311, N-(3-((1S,5R,6S)-3-amino-5-(difluoromethyl)-2-oxa-4-azabicyclo[4.1.0]hept-3-en-5-yl)-5-fluoro-4-methylphenyl)-5-cyano-3-methylpicolinamide]	0.0466	0.0174	294
CC#Cc1ccc(C(=O)Nc2ccc(F)c([C@@]3(C(F)F)N=C(N)O[C@@H]4C[C@@H]43)c2)nc1 [Example 314, N-(3-((1R,5S,6R)-3-amino-5-(difluoromethyl)-2-oxa-4-azabicyclo[4.1.0]hept-3-en-5-yl)-4-fluorophenyl)-5-(prop-1-yn-1-yl)picolinamide]	0.0467	0.0891	421
Cc1nc(OCC(F)(F)F)cnc1C(=O)Nc1cc(F)c(Cl)c([C@@]2(CF)N=C(N)O[C@@H]3C[C@@H]32)c1 [Example 315, N-(3-((1R,5S,6R)-3-amino-5-(fluoromethyl)-2-oxa-4-azabicyclo[4.1.0]hept-3-en-5-yl)-4-chloro-5-fluorophenyl)-3-methyl-5-(2,2,2-trifluoroethoxy)pyrazine-2-carboxamide]	0.0936	0.0927	556
Cc1nc(OCC(F)(F)F)cnc1C(=O)Nc1cc(F)c(Cl)c([C@]2(CF)N=C(N)O[C@H]3C[C@H]32)c1 [Example 316, N-(3-((1S,5R,6S)-3-amino-5-(fluoromethyl)-2-oxa-4-azabicyclo[4.1.0]hept-3-en-5-yl)-4-chloro-5-fluorophenyl)-3-methyl-5-(2,2,2-trifluoroethoxy)pyrazine-2-carboxamide]	> 40	> 15.6	1080
C#CCOc1cnc(C(=O)Nc2cc(F)c(Cl)c([C@@]3(CF)N=C(N)O[C@@H]4C[C@@H]43)c2)cn1 [Example 317, N-(3-((1R,5S,6R)-3-amino-5-(fluoromethyl)-2-oxa-4-azabicyclo[4.1.0]hept-3-en-5-yl)-4-chloro-5-fluorophenyl)-5-(prop-2-yn-1-yloxy)pyrazine-2-carboxamide]	0.0028	0.0014	41
C#CCOc1cnc(C(=O)Nc2cc(F)c(Cl)c([C@]3(CF)N=C(N)O[C@H]4C[C@H]43)c2)cn1 [Example 318]	4.07	1.49	370
COc1cnc(C(=O)Nc2ccc(F)c([C@]3(C)N=C(N)O[C@H]4C[C@H]43)n2)cn1 [Example 323, N-(6-((1S,5R,6S)-3-amino-5-methyl-2-oxa-4-azabicyclo[4.1.0]hept-3-en-5-yl)-5-fluoropyridin-2-yl)-5-methoxypyrazine-2-carboxamide]	> 40	> 15.6	> 400
C[C@]1(c2nc(NC(=O)c3ccc(C#N)cn3)ccc2F)N=C(N)O[C@@H]2C[C@@H]21 [Example 324, N-(6-((1R,5S,6R)-3-amino-5-methyl-2-oxa-4-azabicyclo[4.1.0]hept-3-en-5-yl)-5-fluoropyridin-2-yl)-5-cyanopicolinamide]	0.149	0.0283	182
C[C@]1(c2nc(NC(=O)c3ccc(Cl)cn3)ccc2F)N=C(N)O[C@@H]2C[C@@H]21 [Example 326, N-(6-((1R,5S,6R)-3-amino-5-methyl-2-oxa-4-azabicyclo[4.1.0]hept-3-en-5-yl)-5-fluoropyridin-2-yl)-5-chloropicolinamide]	0.242	0.0323	279
C[C@@]1(c2nc(NC(=O)c3ccc(Cl)cn3)ccc2F)N=C(N)O[C@H]2C[C@H]21 [Example 327, N-(6-((1S,5R,6S)-3-amino-5-methyl-2-oxa-4-azabicyclo[4.1.0]hept-3-en-5-yl)-5-fluoropyridin-2-yl)-5-chloropicolinamide]	2.14	0.703	1320
C[C@]1(c2nc(NC(=O)c3ncc(Cl)cc3Cl)ccc2F)N=C(N)O[C@@H]2C[C@@H]21 [Example 328, N-(6-((1R,5S,6R)-3-amino-5-methyl-2-oxa-4-azabicyclo[4.1.0]hept-3-en-5-yl)-5-fluoropyridin-2-yl)-3,5-dichloropicolinamide]	0.103	0.0116	512
C[C@@]1(c2nc(NC(=O)c3ncc(Cl)cc3Cl)ccc2F)N=C(N)O[C@H]2C[C@H]21 [Example 329, N-(6-((1S,5R,6S)-3-amino-5-methyl-2-oxa-4-azabicyclo[4.1.0]hept-3-en-5-yl)-5-fluoropyridin-2-yl)-3,5-dichloropicolinamide]	> 40	9.6	1610
N#Cc1ccc(C(=O)Nc2ccc(F)c([C@@]3(C(F)F)N=C(N)O[C@@H]4C[C@@H]43)n2)nc1 [Example 331, N-(6-((1R,5S,6R)-3-amino-5-(difluoromethyl)-2-oxa-4-azabicyclo[4.1.0]hept-3-en-5-yl)-5-fluoropyridin-2-yl)-5-cyanopicolinamide]	26.7	> 15.6	1510
C[C@]1(c2cc(NC(=O)c3ccc(Cl)cn3)cnc2F)N=C(N)O[C@@H]2C[C@@H]21 [Example 334, N-(5-((1R,5S,6R)-3-amino-5-methyl-2-oxa-4-azabicyclo[4.1.0]hept-3-en-5-yl)-6-fluoropyridin-3-yl)-5-chloropicolinamide]	0.0944	0.0089	402
COc1cnc(C(=O)Nc2cnc(F)c([C@]3(C)N=C(N)O[C@H]4C[C@H]43)c2)cn1 [Example 336, N-(5-((1(R,S),5(S,R),6(R,S))-3-amino-5-methyl-2-oxa-4-azabicyclo[4.1.0]hept-3-en-5-yl)-6-fluoropyridin-3-yl)-5-methoxypyrazine-2-carboxamide]	0.435	0.0416	> 400
COc1cnc2c(Nc3ccc(F)c([C@@]4(C)N=C(N)O[C@@H]5C[C@@H]54)c3)nccc2c1 [Example 340, (1R,5S,6R)-5-(2-fluoro-5-((3-methoxy-1,7-naphthyridin-8-yl)amino)phenyl)-5-methyl-2-oxa-4-azabicyclo[4.1.0]hept-3-en-3-amine]	0.506	0.0796	> 400
NC1=N[C@](CF)(c2cc(Nc3nccc4cc(Cl)cnc34)cc(F)c2F)[C@@H]2C[C@@H]2O1 [Example 341, (1S,5S,6S)-5-(5-((3-chloro-1,7-naphthyridin-8-yl)amino)-2,3-difluorophenyl)-5-(fluoromethyl)-2-oxa-4-azabicyclo[4.1.0]hept-3-en-3-amine]	3.41	3.41	2890
NC1=N[C@](CF)(c2cc(Nc3nccc4cc(Cl)cnc34)cc(F)c2F)[C@H]2C[C@H]2O1 [Example 342, (1R,5S,6R)-5-(5-((3-chloro-1,7-naphthyridin-8-yl)amino)-2,3-difluorophenyl)-5-(fluoromethyl)-2-oxa-4-azabicyclo[4.1.0]hept-3-en-3-amine]	0.0598	0.12	50.6
N#Cc1cnc2c(Nc3ccc(F)c([C@@]4(CF)N=C(N)O[C@@H]5C[C@@H]54)c3)ncc(F)c2c1 [Example 343, 8-((3-((1R,5S,6R)-3-amino-5-(fluoromethyl)-2-oxa-4-azabicyclo[4.1.0]hept-3-en-5-yl)-4-fluorophenyl)amino)-5-fluoro-1,7-naphthyridine-3-carbonitrile]	0.0949	0.0546	> 44.4
COc1cnc2c(Nc3ccc(F)c([C@@]4(CF)N=C(N)O[C@@H]5C[C@@H]54)c3)ncc(F)c2c1 [Example 344, (1R,5S,6R)-5-(2-fluoro-5-((5-fluoro-3-methoxy-1,7-naphthyridin-8-yl)amino)phenyl)-5-(fluoromethyl)-2-oxa-4-azabicyclo[4.1.0]hept-3-en-3-amine]	430	0.0982	596
NC1=N[C@](CF)(c2cc(Nc3nccc4cc(Cl)cnc34)ccc2F)[C@H]2C[C@H]2O1 [Example 345, (1R,5S,6R)-5-(5-((3-chloro-1,7-naphthyridin-8-yl)amino)-2-fluorophenyl)-5-(fluoromethyl)-2-oxa-4-azabicyclo[4.1.0]hept-3-en-3-amine]	0.0713	0.0543	282
N#Cc1cnc2c(Nc3ccc(F)c([C@@]4(CF)N=C(N)O[C@@H]5C[C@@H]54)c3)nccc2c1 [Example 346, 8-((3-((1R,5S,6R)-3-amino-5-(fluoromethyl)-2-oxa-4-azabicyclo[4.1.0]hept-3-en-5-yl)-4-fluorophenyl)amino)-1,7-naphthyridine-3-carbonitrile]	0.0539	0.0176	205
NC1=N[C@](CF)(c2cc(Nc3ncnc4cc(Cl)cnc34)ccc2F)[C@H]2C[C@H]2O1 [Example 347, (1R,5S,6R)-5-(5-((7-chloropyrido[3,2-d]pyrimidin-4-yl)amino)-2-fluorophenyl)-5-(fluoromethyl)-2-oxa-4-azabicyclo[4.1.0]hept-3-en-3-amine]	0.133	0.0624	106
COc1cnc2c(Nc3ccc(F)c([C@@]4(C(F)F)N=C(N)O[C@@H]5C[C@@H]54)c3)nccc2c1 [Example 348, (1R,5S,6R)-5-(difluoromethyl)-5-(2-fluoro-5-((3-methoxy-1,7-naphthyridin-8-yl)amino)phenyl)-2-oxa-4-azabicyclo[4.1.0]hept-3-en-3-amine]	0.456	0.106	738
